Data reported in patent US9834514B2, “Antibiotic sensitivity-restoring and photosensitive agents” (New Mexico Tech Research Foundation, priority 2015, dated 2017).
Converted amounts (≈) assume the structure as drawn.

Tests used:
[1] = tested on: MRSA (ATCC No. BAA-44; ATCC No. BAA-1717); test: Light-activated killing (photodynamic therapy), colony counts; format: cell-based, S. aureus; conditions: for Light Toxicity: white light 2 minutes; for log reduction in the concentration of CFUs: MRSA, FIG. 7; for appearance of MRSA cells in SEM image: FIG. 4
Experimental: Bacterial media was inoculated with bacteria and incubated overnight. The bacterial cultures were diluted to 5×10^8 CFU/mL using a McFarland latex turbidity standard (0.5). Compound 1 was diluted with sterile DMSO, which was added to the cell suspension in a glass culture tube. The cells were then incubated for 30 minutes at 37° C. on a rotary shaking incubator at 150 rpm. 500 μL of the treated cell suspension was added to a well on a sterile ceramic drop plate. Non-coherent white light from a Lumacare™ LC-122 unit was used to irradiate the samples. The end of the light probe was placed 3 cm above the sample well, perpendicular to the surface of the sample, and light was applied for 2 minutes (15 seconds light, 15 seconds dark). 200 μL of the irradiated sample was transferred to a 96-well plastic microtiter plate, and five ten-fold dilutions were made in the media. 10 μL of each dilution was dripped onto an agar media plate and streaked down the plate by tilting the plate down. The agar plates were incubated at 37° C. overnight, and colony counts were performed to calculate the CFU/mL.
Dose-dependent effects of treating bacteria with compound 1 and irradiation with white light were assessed by treating 10^8 CFU/mL of cells with compound 1, followed by irradiation with white light for 2 minutes. Compound 1 was added at a specific concentration to 1 mL of a 10^8 CFU/mL suspension of the respective bacterial cells, and the cells were incubated at 37° C. for approximately 45 minutes on a rotary shaker at 150 rpm. 0.5 mL of the cell suspension was removed and placed into the wells of a sterile ceramic drop plate, and then the cells were irradiated with white light from a Lumacare™ LC 122A light source for 2 minutes at a distance of approximately 3 cm. The time and distance of the light application delivered about 85 J/cm^2 of 400-700 nm light to the sample. After being irradiated, ten-fold dilutions were made of each cell sample. The dilutions were drip-streaked onto a tryptic soy agar (TSA) plate and incubated at 37° C. for 18-24 hours. Enumeration of bacteria was determined from the dilution, which produced a drip-streak containing approximately 30-300 colonies. After counting the colonies, the CFU/mL was calculated by applying the respective dilution factor and a factor of 100 to account for the 10 μL of sample taken. Appropriate controls were prepared, including cells with no treatment, cells with only compound 1 added, and cells only treated with light.

[2] = tested on: S. pyogenes (ATCC No. 8133); test: MIC against S. pyogenes; format: cell-based; conditions: Streptococcus pyogenes, ATCC8133; compound alone
Excerpt: The error bars in FIG. 12 represent the variations between three replicate determinations.

MRSA (ATCC No. BAA-44) = test: Synergy of compound 1 with antibiotics, isobologram; format: cell-based, S. aureus; conditions: vancomycin, tetracycline, doxycycline, norfloxacin, dicloxicillin, oxacillin, penicillin G, tobramycin; FIGS. 14, 15
Excerpt: The synergy of two compounds with varying relative potencies can be represented using an isobologram. An isobologram plots the normalized effective concentrations of each drug on each axis, where the sum of the two concentrations equals the line of additivity. Outside the line of additivity, when the sum>1, the effect of the two drugs is considered antagonistic; inside of the line of additivity, when the sum<1, the effect of the two drugs is considered superadditive, or when the sum≦0.5, the effect of the two drugs is considered synergistic.
An illustrative example based on a single data point for each antibiotic in combination with compound 1 against MRSA (ATCC No. BAA-44) is shown in FIG. 14. A zoomed-in isobologram for the same data as shown in FIG. 14 is depicted in FIG. 15 specifically for the synergistic area.

E. coli [3] = test: MIC against E. coli; format: cell-based; conditions: Escherichia coli
Excerpt: TABLE 18 details the obtained MIC values for cells treated with compound 1, light, PMB, and Polymyxin E (PME) against E. coli.

E. coli [4] = test: Treatment with compound 1 and PMB at fixed concentrations, with and without white light; format: cell-based
Excerpt: FIG. 54 is an example of the treatment of E. coli with compound 1 and PMB at fixed concentrations with and without irradiation using white light (λ).

E. coli [5] = test: Resensitization to antibiotics (log reduction, TABLE 29); format: cell-based; conditions: compound 1 μM
S. aureus ATCC 29213 = test: as above; format: cell-based
HeLa cells = test: Compound 1 in DMSO versus liposomes on HeLa cells with light (MTT); format: cell-based; conditions: 1 μM; for Compound 1 pre-incubation to max killing: in the dark
Experimental: An effective period of pre-incubation with the drug in the dark was determined to be about 28 hours for compound 1 in DMSO and 60 hours for liposomal delivery of compound 1. The cells were then irradiated with continuous white light for 2 minutes at a distance of 6.5 cm using a LumaCare™ light source. An MTT assay was carried out to evaluate cell viability 48 hours later.

VRE (ATCC 51299) = test: Synergy with antibiotics against VRE; format: cell-based, Enterococcus faecalis
Experimental: For these experiments, overnight cultures of VRE were diluted to about 5×10^5 CFU/mL in TSB. Then, 1 mL of the diluted broth suspension was added to a borosilicate glass culture tube. After appropriate volumes of the compounds were added to the broth suspensions, the samples were mixed using a vortex mixer, and an appropriate volume of an antibiotic was added to the samples. The samples were mixed using a vortex mixer and incubated for 18 hours at 37° C. on a rotary shaking incubator. After 18 hours, the test cultures were diluted ten-fold, and 10 μL of each dilution was drip-streaked onto a TSA plate and incubated for 18 hours at 37° C. Colony counts were then performed and the CFU/mL values were calculated.
TABLE 24 details the MICs of common antibiotics against VRE. In a 12×75 mm borosilicate glass culture tube, 1 mL of cell suspension was added. Then, compound 7 was added to the cells, and the samples were mixed using a vortex mixer. […] The samples were incubated overnight at 37° C. on a rotary shaking incubator at 100 rpm. Inhibition observed visually compared to each individual treatment was considered synergistic.

## Clc1ccc(/C=C/c2[nH]c3ccccc3c2/C=C/c2ccc(Cl)cc2)cc1 [Compound 1]
[1]; MRSA ATCC BAA-44, 0.1 μM, no light
  Dark Toxicity: 2.85 × 10^8 ± 8.05 × 10^7 CFU/mL
[1]; MRSA ATCC BAA-44, 0.1 μM
  Light Toxicity: 2.00 × 10^3 ± 4.00 × 10^2 CFU/mL
[1]; MRSA ATCC BAA-44, 0.5 μM, no light
  Dark Toxicity: 2.93 × 10^8 ± 2.14 × 10^7 CFU/mL
[1]; MRSA ATCC BAA-44, 0.5 μM
  Light Toxicity: 3.33 × 10^1 ± 5.77 × 10^1 CFU/mL
[1]; MRSA ATCC BAA-44, 1.0 μM, no light
  Dark Toxicity: 1.05 × 10^8 ± 9.07 × 10^6 CFU/mL
[1]; MRSA ATCC BAA-44, 1.0 μM
  Light Toxicity: None detected (<100 CFU/mL)
[1]; MRSA ATCC BAA-44, 5.1 μM, no light
  Dark Toxicity: 4.34 × 10^5 ± 5.04 × 10^5 CFU/mL
[1]; MRSA ATCC BAA-44, 5.1 μM
  Light Toxicity: None detected (<100 CFU/mL)
[1]; MRSA ATCC BAA-1717, 0.1 μM, no light
  Dark Toxicity: 5.10 × 10^7 ± 5.29 × 10^6 CFU/mL
[1]; MRSA ATCC BAA-1717, 0.1 μM
  Light Toxicity: 4.43 × 10^3 ± 1.33 × 10^3 CFU/mL
[1]; MRSA ATCC BAA-1717, 0.5 μM, no light
  Dark Toxicity: 4.03 × 10^6 ± 1.5 × 10^6 CFU/mL
[1]; MRSA ATCC BAA-1717, 0.5 μM
  Light Toxicity: 4.0 × 10^2 ± 3.61 × 10^2 CFU/mL
[1]; MRSA ATCC BAA-1717, 1.0 μM, no light
  Dark Toxicity: 1.06 × 10^6 ± 8.39 × 10^4 CFU/mL
[1]; MRSA ATCC BAA-1717, 1.0 μM
  Light Toxicity: None detected (<100 CFU/mL)
[1]; MRSA ATCC BAA-1717, 5.1 μM, no light
  Dark Toxicity: 7.53 × 10^5 ± 1.12 × 10^5 CFU/mL
[1]; MRSA ATCC BAA-1717, 5.1 μM
  Light Toxicity: None detected (<100 CFU/mL)
[1]; 1 μM
  log reduction in the concentration of CFUs: 1 log
[1]; 5 μM
  log reduction in the concentration of CFUs: 3 log
[1]; TABLE 6
  PDT: <1-log reduction
[1]; from 100,000,000 viable MRSA cells, 2 minutes of white light irradiation
  viable MRSA cells after photodynamic therapy: 0
[2]
  MIC: 100 µM (≈ 39 µg/mL)
MRSA (ATCC No. BAA-44)
  synergy with antibiotics (isobologram): able to synergize with every tested antibiotic
E. coli [3]
  MIC: > 200 mg/L
E. coli [4]; FIG. 54
  cell killing with compound 1, PMB and white light: PMB was more efficacious in cell killing when co-administered with compound 1 and light
E. coli [4]; compared to either agent alone, FIG. 17
  killing by combination of compound 1 and PMB (CFU): effective at killing E. coli
E. coli [5]; PMB (0.1 μg/mL)
  Log Reduction: 4
E. coli [5]; PMB (0.1 μg/mL) + Light (2 min)
  Log Reduction: 7
S. aureus ATCC 29213; compound 1 μM, Light (2 min)
  Log Reduction: 6
S. aureus ATCC 29213; compound 5 μM, Norfloxacin (0.5 μg/mL)
  Log Reduction: 6
S. aureus ATCC 29213; compound 5 μM, Tetracycline (0.1 μg/mL)
  Log Reduction: 5
HeLa cells
  Compound 1 (no light), killing: 6% killing
  Compound 1 pre-incubation to max killing: 28 h
HeLa cells; continuous white light 2 minutes, MTT 48 hours later
  Compound 1 + light, killing: 77% killing
HeLa cells; listed as compound 1
  Compound 1 pre-incubation to max killing: about 28 hours

## Brc1ccc(/N=N/c2c[nH]c3ccccc23)cc1 [Compound 8]
VRE (ATCC 51299); 7.5 μM of compound 8 with vancomycin, tetracycline, or norfloxacin, FIG. 43
  killing of VRE in conjunction with antibiotics: more effective at killing VRE

## Clc1ccc(/N=N/c2c[nH]c3ccccc23)cc1 [Compound 9]
[1]; compound 9 alone, no light
  appearance of MRSA cells in SEM image: undamaged
[1]; compound 9 at 25 uM and light (LumaCare)
  appearance of MRSA cells in SEM image: appear to have burst from the inside
VRE (ATCC 51299); 75 μM of compound 9 with tetracycline or norfloxacin, FIG. 44
  killing of VRE in conjunction with antibiotics: more effective at killing VRE
